Results on 12 compounds are retold here after patent US7858620B2, “Cyanoisoquinoline” (H. Lundbeck A/S, priority 2007, dated 2010).

In test [1] the target is T1, PDE10A enzyme (Homo sapiens, UniProt Q9Y233).
T1 construct: made in house; host or cells: E. coli BL21(DE3)
Put plainly: PDE10A inhibition assay, SPA. It counts as biochemical. The settings on record: column head 2,1334003; unit inferred, nM. The protocol: Active PDE10A enzyme is prepared in a number of ways for use in PDE assays (Loughney, K. et al. Gene 1999, 234, 109-117; Fujishige, K. et al. Eur J Biochem. 1999, 266, 1118-1127 and Soderling, S. et al. Proc. Natl. Acad. Sci. 1999, 96, 7071-7076). PDE10A can be expressed as full-length proteins or as truncated proteins, as long as they express the catalytic domain. PDE10A can be prepared in different cell types, for example insect cells or E. coli. An example of a method to obtain catalytically active PDE10A is as follows: The catalytic domain of human PDE10A (amino acids 440-779 from the sequence with accession number NP 006652) is amplified from total human brain total RNA by standard RT-PCR and is cloned into the BamH1 and Xho1 sites of the pET28a vector (Novagen). Expression in coli is performed according to standard protocols. Briefly, the expression plasmids are transformed into the BL21(DE3) E. coli strain, and 50 mL cultures inoculated with the cells allowed to grow to an OD600 of 0.4-0.6 before protein expression is induced with 0.5 mM IPTG. Following induction, the cells are incubated overnight at room temperature, after which the cells are collected by centrifugation. Cells expressing PDE10A are resuspended in 12 mL (50 mM TRIS-HCl-pH8.0, 1 mM MgCl2 and protease inhibitors). The cells are lysed by sonication, and after all cells are lysed, TritonX100 is added according to Novagen protocols.
PDE10A and Pde3A assays can for example be performed as follows: PDE10A and Pde3A assays are performed in 60 uL samples containing a fixed amount of the relevant PDE enzyme (sufficient to convert 20-25% of the cyclic nucleotide substrate), a buffer (50 mM HEPES7.6; 10 mM MgCl2; 0.02% Tween20), 0.1 mg/ml BSA, 225 pCi of ^3H-labelled cyclic nucleotide substrate, tritium labeled cAMP to a final concentration of 5 nM and varying amounts of inhibitors. Reactions are initiated by addition of the cyclic nucleotide substrate, and reactions are allowed to proceed for one hr at room temperature before being terminated through mixing with 15 uL 8 mg/mL yttrium silicate SPA beads (Amersham). The beads are allowed to settle for one hr in the dark before the plates are counted in a Wallac 1450 Microbeta counter. The measured signal can be converted to activity relative to an uninhibited control (100%) and IC50 values can be calculated using the Xlfit extension to EXCEL.

For test [2], the system named is PCP induced hyperactivity in rats. The settings on record: cited from earlier work.
For test [3], the system named is amphetamine induced hyperactivity. The settings on record: rat, in vivo; cited from earlier work.
The subject of test [4] is catalepsy in rats. The settings on record: cited from earlier work.

SMILES strings stand for the structures.

T1 sequence (Q9Y233 716-1055): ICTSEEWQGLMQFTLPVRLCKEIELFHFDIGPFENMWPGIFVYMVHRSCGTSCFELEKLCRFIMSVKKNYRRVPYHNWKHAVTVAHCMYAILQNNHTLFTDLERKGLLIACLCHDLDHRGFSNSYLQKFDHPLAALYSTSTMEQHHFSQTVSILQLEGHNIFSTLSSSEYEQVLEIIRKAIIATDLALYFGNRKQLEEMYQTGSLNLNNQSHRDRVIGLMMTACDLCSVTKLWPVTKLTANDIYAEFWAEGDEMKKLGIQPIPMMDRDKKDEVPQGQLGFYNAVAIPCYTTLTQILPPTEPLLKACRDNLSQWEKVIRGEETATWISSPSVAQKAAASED

As for `COc1cc2c(C#N)cnc(N3CCNC(c4ccc(OC(F)(F)F)cc4)C3)c2cc1OC` (stereo not drawn) [Compound 60, 6,7-Dimethoxy-1-[3-(4-trifluoromethoxy-phenyl)-piperazin-1-yl]-isoquinoline-4-carbonitrile], the IC50 (commonly the concentration that inhibits the measured activity by half) in test [1] came to 2300 nM.
Still for that read-out and setting: next, `COc1ccc([C@@H]2CN(c3ncc(C#N)c4cc(OC)c(OC)cc34)CCN2)cc1` [Compound 61, 6,7-Dimethoxy-1-[(R)-3-(4-methoxy-phenyl)-piperazin-1-yl]-isoquinoline-4-carbonitrile]: 1200 nM.
The same measure, in the same setting: the value for `COc1ccc([C@H]2CN(c3ncc(C#N)c4cc(OC)c(OC)cc34)CCN2)cc1` [Compound 62, 6,7-Dimethoxy-1-[(S)-3-(4-methoxy-phenyl)-piperazin-1-yl]-isoquinoline-4-carbonitrile] was 47 nM; that for `COc1cc2c(C#N)cnc(N3CCNC(c4ccc(OC(C)C)c(C)c4)C3)c2cc1OC` (stereo not drawn) [Compound 63, 1-[3-(4-Isopropoxy-3-methyl-phenyl)-piperazin-1-yl]-6,7-dimethoxy-isoquinoline-4-carbonitrile] was 870 nM; that for `COc1cc(C)c(C2CN(c3ncc(C#N)c4cc(OC)c(OC)cc34)CCN2)c(C)c1` (stereo not drawn) [Compound 64, 6,7-Dimethoxy-1-[3-(4-methoxy-2,6-dimethyl-phenyl)-piperazin-1-yl]-isoquinoline-4-carbonitrile] was 2100 nM.
For the compound `COc1cc2c(C#N)cnc(N3CCNC(c4cc(C)c(OC)c(C)c4)C3)c2cc1OC` (stereo not drawn) [Compound 65, 6,7-Dimethoxy-1-[3-(4-methoxy-3,5-dimethyl-phenyl)-piperazin-1-yl]-isoquinoline-4-carbonitrile], in test [1], the IC50 worked out at 1700 nM.
The same measure, in the same setting: the value for `COc1cc2c(C#N)cnc(N3CCNC(c4ccc5c(c4)OCCO5)C3)c2cc1OC` (stereo not drawn) [Compound 66, 1-[3-(2,3-Dihydro-benzo[1,4]dioxin-6-yl)-piperazin-1-yl]-6,7-dimethoxy-isoquinoline-4-carbonitrile] was 130 nM; that for `COc1cc2c(C#N)cnc(N3CCNC(c4ccc(OCC(C)C)cc4)C3)c2cc1OC` (stereo not drawn) [Compound 67, 1-[3-(4-Isobutoxy-phenyl)-piperazin-1-yl]-6,7-dimethoxy-isoquinoline-4-carbonitrile] was 1100 nM.
On the same count and under the same terms, the value for `COc1cc2c(C#N)cnc(N3CCNC(c4ccc(OC)c(C(F)(F)F)c4)C3)c2cc1OC` (stereo not drawn) [Compound 68, 6,7-Dimethoxy-1-[3-(4-methoxy-3-trifluoromethyl-phenyl)-piperazin-1-yl]-isoquinoline-4-carbonitrile] was 440 nM; that for `CCOc1ccc(C2CN(c3ncc(C#N)c4cc(OC)c(OC)cc34)CCN2)c(C)c1` (stereo not drawn) [Compound 69, 1-[3-(4-Ethoxy-2-methyl-phenyl)-piperazin-1-yl]-6,7-dimethoxy-isoquinoline-4-carbonitrile] was 790 nM.
In the case of `COc1ccc(C2CN(c3ncc(C#N)c4cc(OC)c(OC)cc34)CCN2)cc1NC(C)=O` (stereo not drawn) [Compound 70, N-{5-[4-(4-Cyano-6,7-dimethoxy-isoquinolin-1-yl)-piperazin-2-yl]-2-methoxy-phenyl}-acetamide], in test [1], the IC50 stood at 66 nM.
As for `COc1ccc(Cc2nccc3cc(OC)c(OC)cc23)cc1OC` [Papaverin], in test [2], the “hyperactivity induced by PCP” value is recorded as “reduced hyperactivity”. In test [3], the “reduction of amphetamine induced hyperactivity” value was “insignificant”. For the same compound, the “catalepsy on its own” value in test [4] (alone) is “did not cause catalepsy on its own”. Also, in test [4] (with D2 receptor antagonist haloperidol), the “effect on cataleptic effect of haloperidol” value was “potentiated the cataleptic effect”.
